Experimental data reported in PMC4549746, “Zearalenone in the Intestinal Tissues of Immature Gilts Exposed per os to Mycotoxins” (Toxins, 2015).
“And” between values parts separate entries of the source, which are not always exact repeats. Equal entries are not always repeated. Where two headings read alike, the source gives them in different places.

Assay: ZEN concentrations and carryover factor in intestinal tissues and liver of pre-pubertal gilts exposed per os (HPLC)
Format: in vivo
Details: 40 μg/kg BW daily per os; for concentration at 4 weeks / concentration at 5 weeks / concentration at 1 week / concentration at 2 weeks / concentration at 3 weeks / concentration at 6 weeks: female, pig, oral
Method: The animals were divided into an experimental group (E, n = 18) and a control group (C, n = 21). Group E animals were orally administered ZEN at 40 μg/kg BW. Group C pigs were fed a placebo. The animals were fed complete diets in a restricted feeding regimen (Table 1). The daily dose of ZEN (40 µg/kg BW) was administered to each animal individually, which corresponds to exposure to 957–1014 µg ZEN/kg of a complete diet, depending on daily feed intake. Zearalenone was biosynthesized, purified and standardized by the Department of Chemistry of the Poznań University of Life Sciences. The experiment covered a period of 42 days. The mycotoxin was administered per os daily, in gelatine capsules before the morning feeding. The ZEN dose was adjusted to the body weight of the experimental animals. The mycotoxin was administered in capsules to prevent problems associated with uneven feed intake. Mycotoxin samples were diluted in 300 μL of 96% ethyl alcohol (96% ethyl alcohol, SWW 2442-90, Polskie Odczynniki Chemiczne SA, Gliwice, Poland) to the required dose level (based on body weight). Final solutions were stored at room temperature for 12 h to evaporate the solvent. The animals were weighed every 7 days to update mycotoxin doses for each gilt. Three animals from the experimental group and the control group each were sacrificed on Days 1, 7, 14, 21, 28, 35 and 42 (a total of 6 gilts in each week of exposure), excluding day 1, when only 3 control group animals were scarified. Every week, tissue samples were collected from the porcine gastrointestinal tract (duodenum, first and middle sections, jejunum, ileum, cecum, ascending colon, transverse colon, descending colon, middle section, and the liver, left lobe). Tissue samples were collected from the whole intestinal cross-sections.
Post-mortem tissue samples were collected from the duodenum, jejunum, ileum, cecum, ascending colon, transverse colon, descending colon and the liver after rinsing with phosphate buffer. Pure tissues were stored at −80 °C until shredding and extraction.
Tissue samples (2 g) were homogenized with 9 cm^3 of methanol for 4 min; they were transferred to centrifuge tubes with a minimal amount of the sediment, and the remainder was combined with 5 cm^3 of methanol and repeatedly homogenized. The extracts were combined and centrifuged for 10 min. The supernatant was transferred to a graduated test tube; its volume was read from the scale, and it was evaporated under a stream of nitrogen at a temperature of 60 °C to 0.1–0.2 cm^3 of water. The evaporated product was combined with 2 cm^3 of deionized water, 2 cm^3 of 0.2 M sodium acetate and 500 µL of […] solution. After 16 h of incubation at 37 °C, the reaction was stopped by adding 0.5 cm^3 of acetonitrile. The mixture was quantitatively transferred to a centrifuge tube; it was combined with 10 cm^3 of deionized water and centrifuged for 10 min at 3500 rpm. The supernatant was applied to the Zearala-Test™ column at the rate of 1–2 drops per second. Mycotoxins were eluted from the column with 1.5 mL of methanol; the solvent was evaporated, and the residue was reconstituted with 1 mL of methanol for HPLC analysis.
The concentrations of ZEN and its derivatives were determined by HPLC with the use of the Waters 2695 Separations Module, Waters 2475 Multi λ Fluorescence Detector and Waters 2996 Array Detector. Excitation and emission wavelengths were 274 and 440 nm, respectively. The reverse-phase column was C-18 Nova Pak (3.9 × 150 mm), and the mobile phase was acetonitrile-water-methanol (46:46:8, v/v/v) at a flow rate of 0.5 mL·min^−1. The mycotoxins were quantified by measuring the […] of the peaks based on the relevant calibration curves (correlation coefficient of 0.9996 for ZEN, 0.9989 for α-ZEL and 0.9976 for β-ZEL). Detection limits were determined at 0.001 µg·g^−1 for ZEN, 0.003 µg·g^−1 for α-ZEL and 0.002 µg·g^−1 for β-ZEL. […]

[1] = Week I of exposure, total ZEN dose 280 µg/kg BW
[2] = Week II of exposure, total ZEN dose 560 µg/kg BW
[3] = Week III of exposure, total ZEN dose 840 µg/kg BW
[4] = Week IV of exposure, total ZEN dose 1120 µg/kg BW
[5] = Week V of exposure, total ZEN dose 1400 µg/kg BW
[6] = Week VI of exposure, total ZEN dose 1680 µg/kg BW

SMILES: C[C@H]1CCCC(=O)CCC/C=C/c2cc(O)cc(O)c2C(=O)O1 [ZEN, zearalenone]
- Carryover Factor (CF), Ascending Colon [1]: 0.0054
- Carryover Factor (CF), Cecum [1]: 0.0162
- Carryover Factor (CF), Descending Colon [1]: 0.0167
- Carryover Factor (CF), Duodenum [1]: 0.031
- Carryover Factor (CF), Ileum [1]: 0.016
- Carryover Factor (CF), Jejunum [1]: 0.035
- Carryover Factor (CF), Liver [1]: 0.0225
- Carryover Factor (CF), Transverse Colon [1]: 0.0049
- Carryover Factor (CF), Ascending Colon [2]: 0.0028
- Carryover Factor (CF), Cecum [2]: 0.0075
- Carryover Factor (CF), Descending Colon [2]: 0.0121
- Carryover Factor (CF), Duodenum [2]: 0.022
- Carryover Factor (CF), Ileum [2]: 0.009
- Carryover Factor (CF), Jejunum [2]: 0.035
- Carryover Factor (CF), Liver [2]: 0.0139
- Carryover Factor (CF), Transverse Colon [2]: 0.0082
- Carryover Factor (CF), Ascending Colon [3]: 0.0037
- Carryover Factor (CF), Descending Colon [3]: 0.0090
- Carryover Factor (CF), Duodenum [3]: 0.014
- Carryover Factor (CF), Ileum [3]: 0.008
- Carryover Factor (CF), Jejunum [3]: 0.016
- Carryover Factor (CF), Liver [3]: 0.0154
- Carryover Factor (CF), Transverse Colon [3]: 0.0046
- Carryover Factor (CF), Ascending Colon [4]: 0.0042
- Carryover Factor (CF), Cecum [4]: 0.0030
- Carryover Factor (CF), Descending Colon [4]: 0.1830
- Carryover Factor (CF), Duodenum [4]: 0.019
- Carryover Factor (CF), Ileum [4]: 0.004
- Carryover Factor (CF), Jejunum [4]: 0.039
- Carryover Factor (CF), Liver [4]: 0.0162
- Carryover Factor (CF), Transverse Colon [4]: 0.0065
- ZEN Concentrations (x¯ and SD), Ascending Colon [4]: 4.69 ± 0.45 ng/g
- ZEN Concentrations (x¯ and SD), Descending Colon [4]: 205.01 ± 94.70 ng/g
- ZEN Concentrations (x¯ and SD), Jejunum [4]: 43.82 ± 7.63 ng/g
- ZEN Concentrations (x¯ and SD), Transverse Colon [4]: 7.37 ± 1.66 ng/g
- Carryover Factor (CF), Ascending Colon [5]: 0.0024
- Carryover Factor (CF), Cecum [5]: 0.0129
- Carryover Factor (CF), Descending Colon [5]: 0.1264
- Carryover Factor (CF), Duodenum [5]: 0.091
- Carryover Factor (CF), Ileum [5]: 0.002
- Carryover Factor (CF), Jejunum [5]: 0.010
- Carryover Factor (CF), Liver [5]: 0.0142
- Carryover Factor (CF), Transverse Colon [5]: 0.0046
- ZEN Concentrations (x¯ and SD), Cecum [5]: 18.17 ± 5.02 ng/g
- ZEN Concentrations (x¯ and SD), Duodenum [5]: 128 ng/g and 128.18 ± 64.54 ng/g
- Carryover Factor (CF), Ascending Colon [6]: 0.0014
- Carryover Factor (CF), Cecum [6]: 0.0081
- Carryover Factor (CF), Descending Colon [6]: 0.0666
- Carryover Factor (CF), Duodenum [6]: 0.048
- Carryover Factor (CF), Ileum [6]: 0.016
- Carryover Factor (CF), Jejunum [6]: 0.005
- Carryover Factor (CF), Liver [6]: 0.0136
- Carryover Factor (CF), Transverse Colon [6]: 0.0039
- ZEN Concentrations (x¯ and SD), Ileum [6]: 27.52 ± 10.28 ng/g
- ZEN Concentrations (x¯ and SD), Liver [6]: 23.00 ± 0.79 ng/g
- CF, Average values, Ascending Colon (average of Weeks I-VI): 0.0033
- CF, Average values, Cecum (average of Weeks I-VI): 0.0089
- CF, Average values, Descending Colon (average of Weeks I-VI): 0.0688
- CF, Average values, Duodenum (average of Weeks I-VI): 0.0375
- CF, Average values, Ileum (average of Weeks I-VI): 0.0091
- CF, Average values, Jejunum (average of Weeks I-VI): 0.0233
- CF, Average values, Liver (average of Weeks I-VI): 0.0159
- CF, Average values, Transverse Colon (average of Weeks I-VI): 0.0054
- ZEN concentration, Average values, Ascending Colon (average of Weeks I-VI): 2.805 ng/g
- ZEN concentration, Average values, Descending Colon (average of Weeks I-VI): 85.525 ng/g
- ZEN concentration, Average values, Duodenum (average of Weeks I-VI): 43.93 ng/g
- ZEN concentration, Average values, Ileum (average of Weeks I-VI): 8.705 ng/g
- ZEN concentration, Average values, Jejunum (average of Weeks I-VI): 18.208 ng/g
- ZEN concentration, Average values, Liver (average of Weeks I-VI): 14.72 ng/g
- average ileal concentrations of ZEN (between Week I and Week V): 4.9 ng/g
- concentration at 4 weeks (ascending colon, 40 μg/kg BW daily, Week IV of exposure, total ZEN dose 1120 µg/kg BW, read-out: ZEN Concentrations (x¯ and SD), Ascending Colon): 4.7 ng/g
- concentration at 5 weeks (ascending colon, 40 μg/kg BW daily, Week V of exposure, total ZEN dose 1400 µg/kg BW, read-out: ZEN Concentrations (x¯ and SD), Ascending Colon): 3.4 ± 0.54 ng/g
- concentration at 1 week (ascending colon, 40 μg/kg BW, Week I of exposure, total ZEN dose 280 µg/kg BW, read-out: ZEN Concentrations (x¯ and SD), Ascending Colon): 1.53 ± 1.95 ng/g
- concentration at 2 weeks (ascending colon, 40 μg/kg BW, Week II of exposure, total ZEN dose 560 µg/kg BW, read-out: ZEN Concentrations (x¯ and SD), Ascending Colon): 1.59 ± 2.76 ng/g
- concentration at 3 weeks (ascending colon, 40 μg/kg BW, Week III of exposure, total ZEN dose 840 µg/kg BW, read-out: ZEN Concentrations (x¯ and SD), Ascending Colon): 3.16 ± 1.79 ng/g
- concentration at 6 weeks (ascending colon, 40 μg/kg BW, Week VI of exposure, total ZEN dose 1680 µg/kg BW, read-out: ZEN Concentrations (x¯ and SD), Ascending Colon): 2.46 ± 1.92 ng/g
- concentration at 5 weeks (cecum, 40 μg/kg BW daily, Week V of exposure, total ZEN dose 1400 µg/kg BW, read-out: ZEN Concentrations (x¯ and SD), Cecum): 18.2 ng/g
- concentration at 6 weeks (cecum, 40 μg/kg BW, Week VI of exposure, total ZEN dose 1680 µg/kg BW, read-out: ZEN Concentrations (x¯ and SD), Cecum): 13.7 ± 1.17 ng/g
- concentration at 4 weeks (descending colon, 40 μg/kg BW daily, Week IV of exposure, total ZEN dose 1120 µg/kg BW, read-out: ZEN Concentrations (x¯ and SD), Descending Colon): 205 ng/g
- concentration at 5 weeks (descending colon, 40 μg/kg BW daily, Week V of exposure, total ZEN dose 1400 µg/kg BW, read-out: ZEN Concentrations (x¯ and SD), Descending Colon): 177 ± 50.6 ng/g
- concentration at 6 weeks (descending colon, 40 μg/kg BW, Week VI of exposure, total ZEN dose 1680 µg/kg BW, read-out: ZEN Concentrations (x¯ and SD), Descending Colon): 112 ± 13.7 ng/g
- concentration at 1 week (duodenum, 40 μg/kg BW daily, Week I of exposure, total ZEN dose 280 µg/kg BW, read-out: ZEN Concentrations (x¯ and SD), Duodenum): 8.6 ng/g
- concentration at 5 weeks (duodenum, 40 μg/kg BW daily, Week V of exposure, total ZEN dose 1400 µg/kg BW, read-out: ZEN Concentrations (x¯ and SD), Duodenum): 128 ng/g
- concentration at 6 weeks (duodenum, 40 μg/kg BW, Week VI of exposure, total ZEN dose 1680 µg/kg BW, read-out: ZEN Concentrations (x¯ and SD), Duodenum): 80.7 ± 4.34 ng/g
- concentration at 6 weeks (ileum, 40 μg/kg BW daily, Week VI of exposure, total ZEN dose 1680 µg/kg BW, read-out: ZEN Concentrations (x¯ and SD), Ileum): 27.5 ng/g
- concentration at 4 weeks (jejunum, 40 μg/kg BW daily, Week IV of exposure, total ZEN dose 1120 µg/kg BW, read-out: ZEN Concentrations (x¯ and SD), Jejunum): 43.8 ng/g
- concentration at 6 weeks (jejunum, 40 μg/kg BW daily, Week VI of exposure, total ZEN dose 1680 µg/kg BW, read-out: ZEN Concentrations (x¯ and SD), Jejunum): 8.3 ng/g
- concentration at 4 weeks (liver, 40 μg/kg BW daily, Week IV of exposure, total ZEN dose 1120 µg/kg BW, read-out: ZEN Concentrations (x¯ and SD), Liver): 18.2 ± 5.92 ng/g
- concentration at 5 weeks (liver, 40 μg/kg BW daily, Week V of exposure, total ZEN dose 1400 µg/kg BW, read-out: ZEN Concentrations (x¯ and SD), Liver): 20 ± 2.43 ng/g
- concentration at 6 weeks (liver, 40 μg/kg BW daily, Week VI of exposure, total ZEN dose 1680 µg/kg BW, read-out: ZEN Concentrations (x¯ and SD), Liver): 23 ng/g
- concentration at 3 weeks (liver, 40 μg/kg BW, Week III of exposure, total ZEN dose 840 µg/kg BW, read-out: ZEN Concentrations (x¯ and SD), Liver): 13 ± 1.78 ng/g
- concentration at 4 weeks (transverse colon, 40 μg/kg BW daily, Week IV of exposure, total ZEN dose 1120 µg/kg BW, read-out: ZEN Concentrations (x¯ and SD), Transverse Colon): 7.4 ng/g
- concentration at 5 weeks (transverse colon, 40 μg/kg BW daily, Week V of exposure, total ZEN dose 1400 µg/kg BW, read-out: ZEN Concentrations (x¯ and SD), Transverse Colon): 6.49 ± 0.96 ng/g
- concentration at 2 weeks (transverse colon, 40 μg/kg BW, Week II of exposure, total ZEN dose 560 µg/kg BW, read-out: ZEN Concentrations (x¯ and SD), Transverse Colon): 4.63 ± 3.86 ng/g
- concentration at 3 weeks (transverse colon, 40 μg/kg BW, Week III of exposure, total ZEN dose 840 µg/kg BW, read-out: ZEN Concentrations (x¯ and SD), Transverse Colon): 3.94 ± 0.57 ng/g
- concentration at 6 weeks (transverse colon, 40 μg/kg BW, Week VI of exposure, total ZEN dose 1680 µg/kg BW, read-out: ZEN Concentrations (x¯ and SD), Transverse Colon): 6.7 ± 0.25 ng/g
